# Literature values in patent US20130071326A1, “UNIVERSAL CELL-DIRECTED THERANOSTICS” (Board of Regents of the University of Texas System, priority 2010, published 2013).
# System: tumor
# Details: conventional DOX treatments, at best
structure (smiles),measurement,value
"COc1cccc2c1C(=O)c1c(O)c3c(c(O)c1C2=O)C[C@@](O)(C(=O)CO)C[C@@H]3O[C@H]1C[C@H](N)[C@H](O)[C@H](C)O1 [DOX, doxorubicin]",accumulation of the drug at the tumor,0.8 to 5 µg
